In data set [1] the test system is HL-60. Briefly: Induction of cell cycle arrest in human HL60 cells assessed as accumulation at G1 phase at 0.5 mM after 24 hrs by propidium iodide staining based flow cytometry (reference value: 32%). Type of data set: functional. In general terms: In flow cytometry, cells or beads pass a laser one at a time.
Data set [2] has as its system HL-60. In words: Induction of cell cycle arrest in human HL60 cells assessed as accumulation at S phase at 0.5 mM after 24 hrs by propidium iodide staining based flow cytometry (reference value: 54%). It is filed as functional.
Data set [3] has as its system HL-60. Briefly: Induction of cell cycle arrest in human HL60 cells assessed as accumulation at G2M phase at 0.5 mM after 24 hrs by propidium iodide staining based flow cytometry (reference value: 12%). Type of data set: functional.
In data set [4] the test system is HL-60. In words: Induction of apoptosis in human HL60 cells after 24 to 48 hrs by acridine orange and ethidium bromide staining based fluorescence microscopy. Type of data set: functional, cell-based. The settings on record: Homo sapiens, HL-60; read-out: AC50.
A short description of data set [5]: Growth inhibition of human HL60 cells after 48 hrs by MTT assay. Type of data set: functional, cell-based, HL-60.
The subject of data set [6] is K562. Briefly: Growth inhibition of human K562 cells after 48 hrs by MTT assay. It is filed as functional, cell-based. Background: Tetrazolium dyes change colour on reduction, which living cells bring about.
Data set [7] relates to HuT78. Briefly: Growth inhibition of human HUT78 cells after 48 hrs by MTT assay. It is filed as functional, cell-based.
The subject of data set [8] is HT-29. In words: Growth inhibition of human HT-29 cells after 48 hrs by MTT assay. It is filed as functional, cell-based.
Data set [9] relates to MCF7. In words: Growth inhibition of human MCF7 cells after 48 hrs by MTT assay. Type of data set: functional, cell-based.
The test system of data set [10] is HeLa. In words: Growth inhibition of human HeLa cells after 48 hrs by MTT assay. Type of data set: functional, cell-based.
A short description of data set [11]: Growth inhibition of human Caco2 cells after 48 hrs by MTT assay. Type of data set: functional, cell-based, Caco-2.
The target in data set [12] is T1, Histone deacetylase (Homo sapiens) (UniProt Q13547+O15379+Q9UBN7+Q92769+Q9UQL6+Q8WUI4+Q9BY41+Q96DB2+P56524+Q9UKV0+Q969S8). In words: Inhibition of HDAC in human HL60 cells assessed as increase in histone H3 acetylation at 10 and 100 uM after 24 hrs by Western blotting method. It is filed as cell-based. The conditions noted are these: HL-60.
Data set [13] concerns HL-60. Briefly: Induction of cell cycle arrest in human HL60 cells assessed as accumulation at G1 phase at 50 uM after 24 hrs by propidium iodide staining based flow cytometry (reference value: 32%). Type of data set: functional.
Data set [14] has as its system HL-60. In words: Induction of cell cycle arrest in human HL60 cells assessed as accumulation at S phase at 50 uM after 24 hrs by propidium iodide staining based flow cytometry (reference value: 54%). Type of data set: functional.
Data set [15] deals with HL-60. Briefly: Induction of cell cycle arrest in human HL60 cells assessed as accumulation at G2M phase at 50 uM after 24 hrs by propidium iodide staining based flow cytometry (reference value: 12%). It is filed as functional.
For data set [16], the target named is T1, Histone deacetylase (Homo sapiens). In words: Inhibition of HDAC in human HL60 cells assessed as increase in p21 expression at 50 uM after 24 hrs by flow cytometry. Type of data set: cell-based. The settings on record: HL-60.
The subject of data set [17] is HL-60. In words: Induction of ROS generation in human HL60 cells at 2 and 5 mM after 24 hrs by DCFH-DA staining based flow cytometry. It is filed as functional, cell-based.
Data set [18] can be described thus: Half life in pH 7.4 isotonic sodium phosphate buffer at 37 degC by HPLC-DAD-ESI-MS method. Type of data set: physicochemical.
Data set [19] can be described thus: Half life in RPMI-1640 medium containing 10% fetal calf serum assessed as compound disappearance by HPLC-DAD-ESI-MS method. It is filed as ADME, Bos taurus. The conditions noted are these: cattle.
For data set [20], the target named is T2, Ribonucleotide reductase (Homo sapiens) (UniProt P23921+Q7LG56). In words: Inhibition of ribonucleotide reductase in human HL60 cells assessed as intracellular dNTP pools level at 50 uM after 1 hr by HPLC method. The conditions noted are these: HL-60. Type of data set: cell-based.
For data set [21], the target named is T2, Ribonucleotide reductase (Homo sapiens). Briefly: Inhibition of human recombinant ribonucleotide reductase at 0.1 mM. Type of data set: protein-complex assay.
Data set [22] can be described thus: Cytotoxicity against human HL60 cells after 24 to 48 hrs by trypan blue dye exclusion method. It is filed as functional, cell-based. The conditions noted are these: HL-60.
Data set [23] has as its system HL-60. Briefly: Cytotoxicity against human HL60 cells at 20 to 100 uM after 24 to 48 hrs in presence of 2 mM VPA by trypan blue dye exclusion method. It is filed as functional, cell-based.
Data set [24] concerns HL-60. In words: Cytotoxicity against human HL60 cells at 20 to 100 uM after 24 to 48 hrs in presence of 1 mM VPA by trypan blue dye exclusion method. Type of data set: functional, cell-based.
Data set [25] has as its system HL-60. Briefly: Induction of apoptosis in human HL60 cells at 20 uM in presence of 2 mM VPA after 24 to 48 hrs by acridine orange and ethidium bromide staining based fluorescence microscopy. It is filed as functional.
Data set [26] relates to HL-60. Briefly: Induction of apoptosis in human HL60 cells at 20 uM in presence of 1 mM VPA after 24 to 48 hrs by acridine orange and ethidium bromide staining based fluorescence microscopy. It is filed as functional, cell-based.
Data set [27] deals with HL-60. Briefly: Induction of cell cycle arrest in human HL60 cells assessed as accumulation at G1 phase at 20 uM after 24 hrs by propidium iodide staining based flow cytometry (reference value: 32%). It is filed as functional.
Data set [28] has as its system HL-60. Briefly: Induction of cell cycle arrest in human HL60 cells assessed as accumulation at S phase at 20 uM after 24 hrs by propidium iodide staining based flow cytometry (reference value: 54%). Type of data set: functional.
Data set [29] relates to HL-60. Briefly: Induction of cell cycle arrest in human HL60 cells assessed as accumulation at G2M phase at 20 uM after 24 hrs by propidium iodide staining based flow cytometry (reference value: 12%). It is filed as functional.
Data set [30] has as its system HL-60. Briefly: Induction of cell cycle arrest in human HL60 cells assessed as accumulation at G1 phase at 20 uM in presence of 2 mM VPA after 24 hrs by propidium iodide staining based flow cytometry (reference value: 32%). Type of data set: functional.
Data set [31] relates to HL-60. Briefly: Induction of cell cycle arrest in human HL60 cells assessed as accumulation at S phase at 20 uM in presence of 2 mM VPA after 24 hrs by propidium iodide staining based flow cytometry (reference value: 54%). It is filed as functional.
The subject of data set [32] is HL-60. Briefly: Induction of cell cycle arrest in human HL60 cells assessed as accumulation at G2M phase at 20 uM in presence of 2 mM VPA after 24 hrs by propidium iodide staining based flow cytometry (reference value: 12%). Type of data set: functional.
Data set [33] addresses T1, Histone deacetylase (Homo sapiens). In words: Inhibition of HDAC in human HL60 cells assessed as increase in histone H3 acetylation at 1 mM after 24 hrs by Western blotting method. The settings on record: HL-60. Type of data set: cell-based. For orientation: In western blotting, separated proteins are transferred to a membrane and probed.
Data set [34] concerns HL-60. Briefly: Induction of cell cycle arrest in human HL60 cells assessed as accumulation at G1 phase at 2 mM after 24 hrs by propidium iodide staining based flow cytometry (reference value: 32%). It is filed as functional.
For data set [35], the system named is HL-60. Briefly: Induction of cell cycle arrest in human HL60 cells assessed as accumulation at S phase at 2 mM after 24 hrs by propidium iodide staining based flow cytometry (reference value: 54%). Type of data set: functional.
The test system of data set [36] is HL-60. In words: Induction of cell cycle arrest in human HL60 cells assessed as accumulation at G2M phase at 2 mM after 24 hrs by propidium iodide staining based flow cytometry (reference value: 12%). It is filed as functional.
Data set [37] has as its system HL-60. In words: Induction of cell cycle arrest in human HL60 cells assessed as accumulation at G1 phase at 5 mM after 24 hrs by propidium iodide staining based flow cytometry (reference value: 32%). It is filed as functional.
The subject of data set [38] is HL-60. In words: Induction of cell cycle arrest in human HL60 cells assessed as accumulation at S phase at 5 mM after 24 hrs by propidium iodide staining based flow cytometry (reference value: 54%). It is filed as functional.
The subject of data set [39] is HL-60. Briefly: Induction of cell cycle arrest in human HL60 cells assessed as accumulation at G2M phase at 5 mM after 24 hrs by propidium iodide staining based flow cytometry (reference value: 12%). Type of data set: functional.
For data set [40], the system named is HL-60. Briefly: Induction of ROS generation in human HL60 cells at 50 and 100 uM after 24 hrs by DCFH-DA staining based flow cytometry. Type of data set: functional, cell-based.
[41] abbreviates: Homo sapiens, HL-60, 48 h, read-out: IC50.
Where [42] appears, read: Homo sapiens, K562, 48 h, read-out: IC50.
Setting [43] is: Homo sapiens, HuT78, 48 h, read-out: IC50.
The mark [44] stands for this setting: Homo sapiens, HT-29, 48 h, read-out: IC50.
The mark [45] stands for this setting: Homo sapiens, MCF7, 48 h, read-out: IC50.
Setting [46] is: Homo sapiens, HeLa, 48 h, read-out: IC50.
[47] abbreviates: Homo sapiens, Caco-2, 48 h, read-out: IC50.

Activity calls are given as the source filed them. The rule behind the calls is not given here. Some results are limits rather than exact numbers.

In the case of `NC(=O)NO` [HYDROXYUREA], the Activity in [1] was determined as 86%; in data set [2], 7%; in data set [3] it was 7%.

For the compound `CCCC(CCC)C(=O)OC[C@H]1O[C@@H](n2cnc3c(N)ncnc32)[C@H](OC(=O)C(CCC)CCC)[C@]1(C)O`, in data set [4], the AC50 came out at 140 µM. Further, the IC50 in data set [5] (setting [41]) was found to be 16.3 µM; in data set [6] (setting [42]), 51.9 µM; in data set [7] (setting [43]), 30 µM; in data set [8] (setting [44]) it was 54.6 µM; in data set [9] (setting [45]) it was 57.8 µM; in data set [10] (setting [46]), 54.4 µM. Moreover, the IC50 in [11] (setting [47]) was found to be 55.1 µM. In addition, the inhibition result in data set [12], in data set [16], in [20] and in data set [21] was “inactive” in each case. The Activity in data set [13] came out at 71%; in data set [14], 29%; in data set [15], 0%. The result in data set [17] was inactive. Besides, the half-life in data set [18] and in data set [19] was greater than 72 h each time.

On to `C[C@@]1(O)[C@@H](CO)O[C@@H](n2cnc3c(N)ncnc32)[C@@H]1O`, for which the IC50 came to 15 µM in [22]; 15.6 µM in [5] (setting [41]); 9.4 µM in [6] (setting [42]); 17.3 µM in [7] (setting [43]); 26.1 µM in [8] (setting [44]); 22.4 µM in data set [9] (setting [45]). For the same compound, the concentration for half-maximal inhibition (IC50) stood at 23.3 µM in [10] (setting [46]) and 24.3 µM in [11] (setting [47]). The half-maximal activity concentration (AC50) in data set [4] worked out at 75 µM. The result in data set [23] and in data set [26] was Active. In addition, the result in [24] was inactive. Further, the Activity in [25] is 90%; in data set [27], 31%; in data set [28], 60%; in data set [29] it was 9%; in data set [30] it was 28%; in data set [31] it was 61%. In data set [32], the Activity is on record as 11%. In addition, the half-life in data set [19] was 43.5 h.

On to `CCCC(CCC)C(=O)Nc1ncnc2c1ncn2[C@@H]1O[C@H](COC(=O)C(CCC)CCC)[C@@](C)(O)[C@H]1OC(=O)C(CCC)CCC`, for which the half-inhibitory concentration (IC50) result in data set [5] (hl-60), in data set [6] (k562), in data set [7] (hut78), in [8] (ht-29), in data set [9] (mcf7) and in [10] (hela) was “ND(Insoluble)” each time. Besides, in data set [11] (caco-2), the IC50 result is reported as “ND(Insoluble)”.

For `CCCC(CCC)C(=O)O` [VALPROIC ACID], the IC50 in data set [22] was 1700 µM; in data set [5] (setting [41]), 1700 µM; in data set [6] (setting [42]), greater than 1000 µM; in [7] (setting [43]), 1800 µM; in data set [8] (setting [44]), greater than 1000 µM; in [9] (setting [45]) it was 230 µM. Also, the 50% inhibitory concentration (IC50) in [10] (setting [46]) was 1000 µM; in [11] (setting [47]) it was greater than 1000 µM. Further, the AC50 in data set [4] amounted to 2500 µM. The inhibition entry in data set [33] is “Active”. Further, the Activity in [34] is reported as 78%; in [35] it was 8%; in [36], 14%; in data set [37], 39%; in data set [38], 5%; in [39], 55%. Besides, the outcome in data set [40] was inactive.

In general, AC50 refers to the concentration giving half of the maximal activity seen. Usually IC50 stands for the concentration at which inhibition is half-maximal. What is called half-life is the time in which the quantity being followed falls by half.

(Values after ChEMBL document CHEMBL3351354, “From the covalent linkage of drugs to novel inhibitors of ribonucleotide reductase: synthesis and biological evaluation of valproic esters of 3'-C-methyladenosine” (Bioorg Med Chem Lett, 2014).)
